Test results reported in patent US6107104A, “Modulators of anchoring protein function” (ICOS Corporation, priority 1996, dated 2000).
Blank lines part the entries; values can stand above or below the compound they belong to. Ends that are not written are not given here.

Key:
[1] = in vivo; cited from earlier work
CaN = target: T1, CaN (Rattus norvegicus, UniProt P63329); assay: CaN phosphatase activity toward 32P RII peptide substrate; type: biochemical
T1 construct: made in house; host or cells: Sf9 cells (baculovirus)
Procedure: (§1) To determine whether AKAP 79 peptide binding inhibits CaN activity, CaN phosphatase activity was assayed in the presence of recombinant AKAP 79. Briefly, recombinant AKAP 79 was expressed in E. coli as described in Carr et al., J. Biol. Chem., 267:16816-16823 (1992), incorporated herein by reference. CaN and the constitutively active truncation mutant CaN420 (a truncated, Ca^2+ /calmodulin independent constitutively active form of CaN (Perrino et al., J. Biol. Chem., in press)) were expressed in Sf9 cells and purified on calmodulin-Sepharose as described in Perrino et al., J. Biol Chem., 267:15965-15969 (1992), incorporated herein by reference. Phosphatase activity toward ^32 P RII peptide substrate was measured as described in Perrino et al., supra. CaN (30 nM), calmodulin (100 nM) and ^32 P RII peptide (22 μM) were incubated with AKAP 79 protein and AKAP 79 peptide (SEQ ID NO:1-amino acids 81-102) over the range of concentrations indicated in FIG. 1B. Calmodulin was omitted from CaN420 assays. ^32 P released from the substrate was measured in triplicate samples in three separate experiments by scintillation counting. The inhibition constant (Ki) of recombinant AKAP 79 for CaN was determined by linear regression analysis of data. Ki values for AKAP 79 peptide were estimated by determining the IC50 using a fixed substrate concentration at Km (42 μM).

[2] = following liver transplantation; cited from earlier work
CaN420 = target: T2, CaN420 (Rattus norvegicus, UniProt P63329); assay: CaN420 phosphatase activity toward 32P RII peptide substrate; type: biochemical; conditions: calmodulin omitted
T2 construct: a truncated, Ca^2+ /calmodulin independent constitutively active form of CaN; made in house; host or cells: Sf9 cells (baculovirus)
Procedure: as §1

protein phosphatases 2A = assay: Protein phosphatase 2A activity; type: biochemical; conditions: peptide concentrations as high as 0.4 mM
protein phosphatases 1 = assay: Protein phosphatase 1 activity; type: biochemical; conditions: peptide concentrations as high as 0.4 mM
^32 P-inhibitor 1 = assay: Calcineurin phosphatase assay of reconstituted CaN holo-enzyme; type: biochemical; conditions: in association with CaN B, ten minute incubation at room temperature, 33 nM complex
Procedure: The activity of CaN is measured by the Ca^2+ --and calmodulin-dependentrelease of ^32 Pi from ^32 P-inhibitor 1, using the method of Nairn, et al. [Neuroprotocols 6:108-111 (1995)]. Identified chemicals are pre-incubated with 4 or 30 nM CaN before initiation of the reaction with ^32 P-inhibitor 1 (Chemicon). Inhibitor 1 (50 μg) was phosphorylated using the catalytic subunit of PKA and purified according to the procedure described in Nairn, et al., [supra]. Phosphatase activity in the absence of chemicals is defined as 100%.
In order to determine if the mutated CaN A protein retained phosphatase activity, a CaN holo-enzyme was reconstituted. One micromole of purified wild type or mutant CaN A was incubated with equal molar amount of purified CaN B (Chemicon), and calmodulin (Sigma) in 50 mM Hepes, pH 7.5, 1 mM MnCl2, 0.5 mM EDTA, 1 mM DDT, and 2 mg/ml BSA, for 24 hours at 4° C., after which 33 nM of the reconstituted complex was used in a calcineurin phosphatase assay using ^32 P-inhibitor 1 as substrate as described in Example 14.

Compound: N=C(N)NCCCCCCC(=O)NC(O)C(=O)NCCCCNCCCN (centres unmarked) [15-Deoxyspergualin]
- effective in refractory kidney rejection [1]: 70-90%

- effect on the potency of inhibition of CaN by AKAP 79 (CaN; FK506 2 μM): did not affect
Compound: C=CC[C@@H]1/C=C(\C)C[C@H](C)C[C@H](OC)[C@H]2O[C@@](O)(C(=O)C(=O)N3CCCC[C@H]3C(=O)O[C@H](/C(C)=C/[C@@H]3CC[C@@H](O)[C@H](OC)C3)[C@H](C)[C@@H](O)CC1=O)[C@H](C)C[C@@H]2OC [FK506, reference compound]
- patients with moderate to severe neurotoxicity [2]: 10-20%

- inhibition of CaN420 phosphatase activity (CaN420): inhibited
- inhibition of full-length CaN phosphatase activity (CaN; Ca2+/calmodulin dependent CaN 30 nM, 32P RII peptide substrate): inhibited
- effect on activity of protein phosphatase 2A (protein phosphatases 2A): did not significantly affect
- effect on activity of protein phosphatase 1 (protein phosphatases 1): did not significantly affect
Compound: RRKRSQSSKEEKP [AKAP 79 peptide]

- dephosphorylation of substrate (^32 P-inhibitor 1): 33%
Compound: biotinylated CaN A: endogenously biotinylated rat brain calcineurin A, wild type
